US6740636B2 (priority 2000, dated 2004)

Tests used:
[1] = tested on: allogeneic heart transplants; assay: Histology, immunohistochemistry (ED1) and rejection score of allogeneic heart transplants 3 days after transplantation; type: in vivo, rat
Description: Transplanted hearts were removed under deep anesthesia, quickly blotted free of blood, weighed, and then processed as needed for histology and immunohistochemistry. The organs were cut into 1-mm slices and either immersion-fixed in 4% formaldehyde in phosphate buffered saline (PBS) pH 7.35, (PBS: 99 mM NaH2PO4, 108 mM NaH2PO4 and 248 mM NaCl) for 24 h or fixed in methacarn for 8 h and embedded in paraffin. Light microscopy was performed on 3 μm sections stained by periodic acid-Schiff or Goldner-Elastica. Light microscopy was performed on allogeneic heart transplants 3 days after transplantation.
The ED1 monoclonal antibody (Serotec/Camon) was used on methacarn fixed paraffin embedded tissue (3 μm) to stain for rat monocytes/macrophage cells. An alkaline phosphatase anti-alkaline phosphatase detection system was used for visualization (Dako). Controls that omit the first or second antibody for each section were performed for negative staining. […]
Mild acute rejection (score: 1) was characterized by a sparse interstitial mononuclear infiltrate often accentuated in perivascular spaces. […] The rejection score was calculated for every tissue block and an average score was calculated from the different blocks for every transplanted heart as rejection processes tended to be focal.

[2] = tested on: recipient Lewis rats given donor ACI rat grafts; assay: Heterotopic heart transplant rejection model (ACI donor, Lewis recipient); type: in vivo; settings: cyclosporin A only
Description: In this assay an increase in allograft survival time corresponds to a decrease in heart transplant rejection in the recipient Lewis rats given donor ACI rat grafts.
Adult male, specific pathogen-free ACI (RT1a) and Lewis (RT1l) rats (Charles River, Boston, Mass.) weighing 200 to 250 g were used as donors and recipients, respectively, in these studies. Vascularized cardiac allografts were heterotopically transplanted into the abdomen of recipient rats using a modification (Nisco, S. et al., (1994), supra) of the technique of Ono and Lindsay (Ono, K. et al., (1969), supra). […] Abdominal allografts were palpated on a daily basis to assess graft function, and rejection was deemed complete when palpable ventricular contractions ceased.
The transplanted hearts were evaluated daily for signs of rejection over the course of the study.

Q: Which “immunohistology for ED1-positive monocytes/macrophages in allogeneic heart transplants” value [1] does the source give for cyclosporin A here?
A: inflammatory cell infiltrate was focal and was composed primarily of ED-1 positive cells

Q: What about the “mean allograft survival time” value ([2]; 2.5 mg/kg by gavage once per day for duration of study) of the same substance?
A: 7.3±0.5 days

Q: And the “mean allograft survival time” value ([2]; 10 mg/kg by gavage once per day for four days)?
A: 12.9±0.7 days
